Laboratory results reported in patent US20260200849A1, “CATIONIC LIPIDS AND PREPARATION METHOD THEREOF” (RiboX Therapeutics HK Limited, priority 2024, published 2026).
“And” between values parts separate entries of the source, which are not always exact repeats. Equal entries are not always repeated. Where two headings read alike, the source gives them in different places.

How the values were obtained:
[1] = system: MCP-1; test: In vivo tolerability by IV: serum MCP-1 by Luminex; set-up: species or system C57BL/6J mice; details: Formulation No. 001, RNA No. 331, male C57BL/6J mice, 1.0 mg*kg/1 intravenous
Method in brief: (§1)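 Male C57BL/6J mice aged 6-8 weeks (N=3) received 1.0 mg*kg−1 firefly-luciferase RNA-LNPs intravenously, with PBS as negative control. Serum taken at 2 and 24 h post-injection was assayed for MCP-1 and IL-6 by Luminex.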

[2] = system: C57BL/6J mice; test: In vivo expression by IV, 1.0 mg/kg luciferase RNA-LNPs, whole-body and organ IVIS luminescence; details: Formulation No. 001, RNA No. 331; male C57BL/6J mice, 1.0 mg*kg−1 intravenous, 24-hours post injection
Method in brief: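 Male C57BL/6J mice, 6-8 weeks old (N=3), received 1.0 mg*kg−1 firefly-luciferase RNA-LNPs IV. At 24 h post-dose, luciferin (15 mg/ml) was given IP, and whole-body, liver, spleen, kidney, small and large intestine luminescence was imaged by IVIS.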

[3] = system: IL-6; test: In vivo tolerability by IV: serum IL-6 by Luminex; set-up: species or system C57BL/6J mice; details: Formulation No. 001, RNA No. 331, male C57BL/6J mice, 1.0 mg*kg/1 intravenous
Method in brief: as §1

[4] = In vivo lipid metabolism by IV: ionizable lipid concentration in plasma and liver by LC-MS/MS; set-up: species or system Sprague-Dawley (SD) rats; details: IV 0.15 mg/kg RNA-LNPs (hEPO), male SD rats, individual animals N=3; for concentration at 6 h / concentration at 168 h / concentration at 1 h: male, Sprague-Dawley, rat, iv, 0.15 mg/kg
Method in brief: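 Male SD rats, 7-8 weeks old (N=3), given 0.15 mg*kg−1 hEPO-encoding RNA-LNPs IV. Plasma sampled at 1, 6, 96 and 168 h and liver at 6 and 168 h terminally; ionizable lipid quantified by LC-MS/MS, LLOQ 1 ng/mL plasma, 11 ng/g liver.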

[5] = system: hEPO; test: In vivo expression by IM: serum hEPO concentration by ELISA; details: IM 0.075 mg/kg, male C57BL/6J mice N=3, Formulation 001, RNA 019
Protocol: Circular RNA payloads were suspended in 25 mM Acetate Buffer (pH 4.5). To form LNPs, three volumes of human erythropoietin (hEPO) encoding cirRNA (SEQ ID NO:2), were mixed with one volume of lipids in ethanol solution by microfluidic mixing with the INano™ L+ (Micro& Nano) at a flow rate of 12 ml/min. The molar ratio of ionizable lipid to ribonucleotide was 6. After encapsulation, the particles were dialyzed twice against PBS. The LNP formulation was concentrated to targeted RNA concentration by Amicon® Ultra Centrifugal Filter (100 kDa MWCO) and filtered by a 0.65/0.22 um sterile filter.
6-8 week old, male C57BL/6J mice (N=3) were injected with 0.075 mg*kg−1 of RNA-LNPs encoding for hEPO by intramuscular injection. At 2-/6-/24-/48-/72 h-hours post injection, about 80 μL blood will be harvested and immediately added to the procoagulant containing tube. Stand for 30 min at room temperature and then centrifuged at 2500 g×10 min to obtain serum. About 30 μL serum samples will be aliquoted for hEPO concentration detection by ELISA kit (STEMCELL Technologies).

[6] = liver, 6 h post injection, read-out: Liver (ng/g), ionizable lipid concentration

CCCCCCCCC(CCCCCC)C(=O)OCCCCCCCCOC(=O)NC(COC(=O)NCCN1CCCCC1)C(=O)OCCCCCCCCOC(=O)C(CCCCCC)CCCCCCCC (stereo not shown) [Lipid 888]
MCP-1 at 2 h ([1]; 2 hours post injection): 396 pg/mL | MCP-1 at 24 h ([1]; 24 hours post injection): 206 pg/mL | Kidney (p/s) [2]: 2.72E+07 p/s | Large intestine (p/s) [2]: 1.07E+08 p/s | Liver (p/s) [2]: 4.61E+09 p/s | Small intestine (p/s) [2]: 8.59E+08 p/s | Spleen (p/s) [2]: 2.55E+08 p/s | Whole body (p/s) [2]: 4.10E+09 p/s | IL-6 at 2 h ([3]; 2 hours post injection): 5.5 pg/mL | IL-6 at 24 h ([3]; 24 hours post injection): 5.71 pg/mL | Plasma (ng/mL), ionizable lipid concentration ([4]; 1 h post injection): 1635 ng/mL and 1440 ng/mL | Liver (ng/g), ionizable lipid concentration ([4]; 6 h post injection): 31120 ng/g and 47483 ng/g | Plasma (ng/mL), ionizable lipid concentration ([4]; 6 h post injection): 966 ng/mL and 975 ng/mL | Plasma (ng/mL), ionizable lipid concentration ([4]; 96 h post injection): 28.6 ng/mL (2×) and 12.9 ng/mL | Liver (ng/g), ionizable lipid concentration ([4]; 168 h post injection): 2277 ng/g and 2814 ng/g | Plasma (ng/mL), ionizable lipid concentration ([4]; 168 h post injection): 9.51 ng/mL and 8.26 ng/mL | concentration at 6 h [4, 6]: 48800 ng/g | concentration at 168 h ([4]; liver, 168 h post injection, read-out: Liver (ng/g), ionizable lipid concentration): 1640 ng/g | concentration at 1 h ([4]; plasma, 1 h post injection): 1640 ng/mL | concentration at 6 h ([4]; plasma, 6 h post injection, read-out: Plasma (ng/mL), ionizable lipid concentration): 966 ng/mL | concentration at 168 h ([4]; plasma, 168 h post injection, read-out: Plasma (ng/mL), ionizable lipid concentration): 9.51 ng/mL

CCCCCCCC/C=C\CCCCCCCC(=O)NC(COC(=O)NCCN1CCCCC1)C(=O)OCCCCCCCCOC(=O)C(CCCCCC)CCCCCCCC (stereo not shown) [Lipid 700]
Plasma (ng/mL), ionizable lipid concentration ([4]; 1 h post injection): 1272 ng/mL and 1635 ng/mL | Liver (ng/g), ionizable lipid concentration ([4]; 6 h post injection): 25720 ng/g and 25028 ng/g | Plasma (ng/mL), ionizable lipid concentration ([4]; 6 h post injection): 359 ng/mL and 641 ng/mL and 966 ng/mL | Plasma (ng/mL), ionizable lipid concentration ([4]; 96 h post injection): 5.84 ng/mL and 4.4 ng/mL and 28.6 ng/mL | Liver (ng/g), ionizable lipid concentration ([4]; 168 h post injection): 696.6 ng/g and 191.6 ng/g and 236.8 ng/g | Plasma (ng/mL), ionizable lipid concentration ([4]; 168 h post injection): 1.24 ng/mL and 9.51 ng/mL | concentration at 6 h [4, 6]: 26800 ng/g | concentration at 1 h ([4]; plasma, 1 h post injection): 1440 ng/mL

CCCCC/C=C\C/C=C\CCCCCCCC(=O)NC(COC(=O)NCCN1CCCCC1)C(=O)OCCCCCCCC(=O)OC(CCCCCCCC)CCCCCCCC (stereo not shown) [Lipid 549]
hEPO conc. (ng/mL) at 2 h ([5]; 2 h): 2.47 ng/mL | hEPO conc. (ng/mL) at 6 h ([5]; 6 h): 7.26 ng/mL | hEPO conc. (ng/mL) at 24 h ([5]; 24 h): 12.57 ng/mL | hEPO conc. (ng/mL) at 48 h ([5]; 48 h): 2.61 ng/mL | hEPO conc. (ng/mL) at 72 h ([5]; 72 h): 0.87 ng/mL
